Measurements as given in patent publication US20050020594A1, “Substituted pyridazinones” (Pharmacia Corporation, priority 2003, published 2005).

Molecular target: T1, human p38 kinase alpha (Homo sapiens, UniProt Q16539)
T1 construct: made in house; host or cells: E. coli DH10B
Assay: p38 alpha kinase assay
Format: biochemical
Settings: in vitro inhibition of activated human p38 kinase alpha; two formats described (PHAS-I/32P-ATP, EGFRP/33P-ATP), format used not stated; values given as ranges
Method: The ability of compounds to inhibit human p38 kinase alpha was evaluated using two in vitro assay methods. In the first method, activated human p38 kinase alpha phosphorylates a biotinylated substrate, PHAS-I (phosphorylated heat and acid stable protein-insulin inducible), in the presence of gamma ^32P-ATP (^32P-ATP). PHAS-I was biotinylated prior to the assay and provides a means of capturing the substrate, which is phosphorylated during the assay. p38 Kinase was activated by MKK6. Compounds were tested in 10 fold serial dilutions over the range of 100 μM to 0.001 μM using 1% DMSO. Each concentration of inhibitor was tested in triplicate. All reactions were carried out in 96 well polypropylene plates. Each reaction well contained 25 mM HEPES pH 7.5, 10 mM magnesium acetate and 50µM unlabeled ATP. Activation of p38 was required to achieve sufficient signal in the assay. Biotinylated PHAS-I was used at 1-2 μg per 50 μl reaction volume, with a final concentration of 1.5 μM. Activated human p38 kinase alpha was used at 1 μg per 50 μl reaction volume representing a final concentration of 0.3 μM. […] The plates were sealed and counted. […] 150 μl of Microscint 40 was then added to each well of the Microlite plate, and the plate was sealed, mixed, and counted.

T1 sequence (Q16539 whole entry): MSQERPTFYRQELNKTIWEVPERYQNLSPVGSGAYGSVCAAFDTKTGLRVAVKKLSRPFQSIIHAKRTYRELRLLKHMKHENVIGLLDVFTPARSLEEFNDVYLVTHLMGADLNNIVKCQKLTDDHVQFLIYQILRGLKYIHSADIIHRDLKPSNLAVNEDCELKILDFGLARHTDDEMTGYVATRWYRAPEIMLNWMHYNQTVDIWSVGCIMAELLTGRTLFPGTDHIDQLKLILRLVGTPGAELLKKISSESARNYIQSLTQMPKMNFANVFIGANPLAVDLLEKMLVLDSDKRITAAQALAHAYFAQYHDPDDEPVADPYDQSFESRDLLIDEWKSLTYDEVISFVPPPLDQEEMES

Structure (SMILES): Cc1c(OCCc2ccccc2)cnn(-c2c(Cl)cccc2Cl)c1=O [Compound 49, 2-(2,6-dichlorophenyl)-4-methyl-5-(2-phenylethoxy)pyridazin-3(2H)-one]
- IC50: 0.1 to 20 µM

Structure (SMILES): O=c1cc(OCCc2ccccc2)cnn1-c1c(Cl)cccc1Cl [Compound 48, 2-(2,6-dichlorophenyl)-5-(2-phenylethoxy)pyridazin-3(2H)-one]
- IC50: 40 to 60 µM
